# Legend:
# HAPI cells [1] = assay type: cell-based, rat
# Experimental: Figure 5 Toxicity studies of RK-33 in mice • Following injection of 20 mg/kg of RK-33, twice a week for 7 weeks, extensive histopathological examination was carried out following necropsy. Identical patterns were observed both in the control and in the treated mice (n = 2). Samples were stained with H&E. Scale bar is 50 μm. • Pharmacokinetics of RK-33 in SCID mice at various time intervals. Results are mean ± SD from 5 mice. LC-MS/MS method was used to determine concentration of RK-33 in mouse plasma and tissue. • Liquid chromatography–mass spectrometry (LC-MS/MS) analysis was performed to determine different metabolites of RK-33. • RK-33 and metabolites characterized by LC-MS/MS in human liver microsomes using the scan mode function of the LC-MS/MS. • HAPI cells were treated with RK-33 (10 μM), HA14-1 (25 μM), or DMSO vehicle, followed by oligomycin (oligo, 0.5 μg/ml), FCCP (3 μM), and antimycin A (AA, 1 μM) while oxygen consumption rate (OCR) was measured. Pyruvate (10 mM) was added in combination with FCCP to ensure that substrate supply was not rate-limiting for maximal OCR. Data are mean ± SD from 2 to 3 wells and representative of independent experiments performed with two different HAPI passages. OCR is baseline-normalized to the point prior to drug or vehicle addition. • HAPI microglial cells were incubated for 1 h in glucose-free XF24 assay medium that was supplemented with 2-deoxyglucose (50 mM) and pyruvate (10 mM). RK-33 (10 μM), oligomycin (0.5 μg/ml), or vehicle control was additionally present as indicated. Results are mean ± SD from 12 replicates pooled from experiments using two consecutive passages. Significance was assessed by two-sided, unpaired t-test. […]
# Oxygen consumption measurements were performed using an XF24 Extracellular Flux Analyzer (Seahorse Bioscience, Billerica, MA) as previously described (Wu et al, [2007]; Clerc & Polster, [2012]). […] The ATP bioluminescent somatic cell assay kit (Sigma-Aldrich) was employed for the determination of ATP levels by luminescence using a FLUOstar OPTIMA multimodal plate reader (BMG LABTECH, Inc., Cary, NC). […]
# HAPI cells [2] = assay type: cell-based, rat; settings: 0.5 μg/ml, 1 h
smiles,measurement,setting,value
CCOC(=O)C1=C(N)Oc2ccc(Br)cc2C1C(C#N)C(=O)OCC (stereo not shown) [HA14-1],OCR measured in the presence of FCCP,"HAPI cells [1]; 25 μM, positive control",decreased OCR measured in the presence of FCCP
same,oligomycin-insensitive oxygen consumption,"HAPI cells [1]; 25 μM, positive control",elevated oligomycin-insensitive oxygen consumption
CCCCCC[C@H]1C(=O)O[C@H](C)[C@H](NC(=O)c2cccc(NC=O)c2O)C(=O)O[C@@H](C)[C@@H]1OC(=O)CC(C)C [antimycin A],oxygen consumption in the presence of all drugs,HAPI cells [1]; 1 μM,potently inhibited
CC[C@H]1/C=C/C=C/C[C@@H](C)[C@H](O)[C@@](C)(O)C(=O)[C@@H](C)[C@H](O)[C@@H](C)C(=O)[C@@H](C)[C@H](O)[C@@H](C)/C=C/C(=O)O[C@@H]2[C@H](C)[C@H](CC1)O[C@]1(CC[C@H](C)[C@H](C[C@@H](C)O)O1)[C@H]2C [oligomycin],decrease of total cellular ATP,HAPI cells [2],approximately 70%
